Assay [1] is described as follows: DRUGMATRIX: Glutamate, NMDA, Phencyclidine radioligand binding (ligand: [3H] TCP). The format is cell membranes, Rattus norvegicus, Wistar, Cerebral cortex, Membrane. The note with it: Not Active = under 50% inhibition at 10 µM.
For another assay, the target named is D(1A) dopamine receptor (Homo sapiens, UniProt P21728). Description: DRUGMATRIX: Dopamine D1 radioligand binding (ligand: [3H] SCH-23390). The format is cell membranes, CHO, Membrane. The following applies: cho; Not Active = under 50% inhibition at 10 µM.
Sequence of D(1A) dopamine receptor (P21728 whole entry): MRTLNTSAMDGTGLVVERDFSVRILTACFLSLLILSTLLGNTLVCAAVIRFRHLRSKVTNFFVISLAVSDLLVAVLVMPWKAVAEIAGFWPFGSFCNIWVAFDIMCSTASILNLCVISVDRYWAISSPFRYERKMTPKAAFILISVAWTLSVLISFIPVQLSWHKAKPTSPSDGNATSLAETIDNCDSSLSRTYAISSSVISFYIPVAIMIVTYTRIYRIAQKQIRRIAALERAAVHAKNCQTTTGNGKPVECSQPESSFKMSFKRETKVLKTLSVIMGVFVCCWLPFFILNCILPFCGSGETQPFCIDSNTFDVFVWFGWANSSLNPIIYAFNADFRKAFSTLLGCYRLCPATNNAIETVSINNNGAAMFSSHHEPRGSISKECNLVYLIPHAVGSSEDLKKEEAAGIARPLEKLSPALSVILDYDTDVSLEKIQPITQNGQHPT
In assay [2] the target is T1, Receptor-type tyrosine-protein phosphatase C (Homo sapiens, UniProt P08575).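 Also: inhibition of CD45 enzyme activity measured using DiFMUP as substrate; in other assays of this panel Not Active means under 50% inhibition at 10 µM.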
T1 sequence (P08575 whole entry): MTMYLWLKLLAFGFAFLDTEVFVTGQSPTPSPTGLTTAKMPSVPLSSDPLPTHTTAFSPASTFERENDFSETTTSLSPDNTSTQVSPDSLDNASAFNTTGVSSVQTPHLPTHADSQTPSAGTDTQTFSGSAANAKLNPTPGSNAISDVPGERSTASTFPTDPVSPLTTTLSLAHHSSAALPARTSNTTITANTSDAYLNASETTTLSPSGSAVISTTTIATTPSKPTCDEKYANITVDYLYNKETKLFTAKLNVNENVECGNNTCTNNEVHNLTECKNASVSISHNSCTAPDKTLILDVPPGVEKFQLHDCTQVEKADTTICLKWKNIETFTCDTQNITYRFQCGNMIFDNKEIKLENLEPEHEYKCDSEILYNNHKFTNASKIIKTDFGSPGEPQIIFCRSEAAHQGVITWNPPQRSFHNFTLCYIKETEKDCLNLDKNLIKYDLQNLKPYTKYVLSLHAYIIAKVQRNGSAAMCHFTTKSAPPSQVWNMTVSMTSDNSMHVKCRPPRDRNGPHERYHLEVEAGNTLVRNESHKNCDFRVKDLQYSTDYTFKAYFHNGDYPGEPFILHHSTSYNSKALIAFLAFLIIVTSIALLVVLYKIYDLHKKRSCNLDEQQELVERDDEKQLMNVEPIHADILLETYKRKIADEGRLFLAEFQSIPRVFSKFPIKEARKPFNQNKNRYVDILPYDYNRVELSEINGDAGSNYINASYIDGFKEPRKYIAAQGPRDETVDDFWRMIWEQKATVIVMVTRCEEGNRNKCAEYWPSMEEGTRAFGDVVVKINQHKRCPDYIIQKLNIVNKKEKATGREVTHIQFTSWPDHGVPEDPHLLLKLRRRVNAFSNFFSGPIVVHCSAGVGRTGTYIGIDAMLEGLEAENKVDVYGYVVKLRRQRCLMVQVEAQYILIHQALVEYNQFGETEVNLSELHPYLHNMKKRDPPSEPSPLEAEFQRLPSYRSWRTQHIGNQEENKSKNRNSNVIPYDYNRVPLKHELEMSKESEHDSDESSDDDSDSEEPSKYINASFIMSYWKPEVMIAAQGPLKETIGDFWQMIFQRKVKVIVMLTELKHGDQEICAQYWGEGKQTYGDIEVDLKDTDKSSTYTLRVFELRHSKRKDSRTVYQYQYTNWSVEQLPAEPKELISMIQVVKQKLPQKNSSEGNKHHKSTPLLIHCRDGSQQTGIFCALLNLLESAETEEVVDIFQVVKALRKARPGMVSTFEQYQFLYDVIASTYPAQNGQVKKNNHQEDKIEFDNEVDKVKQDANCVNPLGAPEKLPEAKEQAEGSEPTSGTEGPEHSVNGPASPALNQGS
Also on record: species or system Escherichia coli.

Assay [3] concerns the target Sodium-dependent noradrenaline transporter (Homo sapiens, UniProt P23975). Put plainly: DRUGMATRIX: Norepinephrine Transporter radioligand binding (ligand: [125I] RTI-55). The format is cell membranes, MDCK, Membrane. The note with it: mdck, Not Active = under 50% inhibition at 10 µM.
Assay [4] deals with T2, Vasoactive intestinal polypeptide receptor 1 (Homo sapiens, UniProt P32241).
T2 sequence (P32241 whole entry): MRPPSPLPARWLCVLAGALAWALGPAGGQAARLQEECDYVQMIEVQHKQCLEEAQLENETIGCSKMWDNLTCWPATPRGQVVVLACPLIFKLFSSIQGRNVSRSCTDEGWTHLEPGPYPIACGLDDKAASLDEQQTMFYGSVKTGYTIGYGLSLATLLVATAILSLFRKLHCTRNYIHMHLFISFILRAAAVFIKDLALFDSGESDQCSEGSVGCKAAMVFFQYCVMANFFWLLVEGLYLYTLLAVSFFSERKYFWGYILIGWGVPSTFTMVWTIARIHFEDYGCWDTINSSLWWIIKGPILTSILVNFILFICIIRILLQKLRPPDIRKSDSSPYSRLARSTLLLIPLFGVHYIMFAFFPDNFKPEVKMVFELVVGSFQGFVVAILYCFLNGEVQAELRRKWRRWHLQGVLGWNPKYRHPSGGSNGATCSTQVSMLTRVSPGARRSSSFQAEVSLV
In kind it is cell membranes, Membrane. The following applies: ht-29.

In another assay the target is T3, Progesterone receptor (Bos taurus, UniProt Q690N0).
T3 sequence (Q690N0 whole entry): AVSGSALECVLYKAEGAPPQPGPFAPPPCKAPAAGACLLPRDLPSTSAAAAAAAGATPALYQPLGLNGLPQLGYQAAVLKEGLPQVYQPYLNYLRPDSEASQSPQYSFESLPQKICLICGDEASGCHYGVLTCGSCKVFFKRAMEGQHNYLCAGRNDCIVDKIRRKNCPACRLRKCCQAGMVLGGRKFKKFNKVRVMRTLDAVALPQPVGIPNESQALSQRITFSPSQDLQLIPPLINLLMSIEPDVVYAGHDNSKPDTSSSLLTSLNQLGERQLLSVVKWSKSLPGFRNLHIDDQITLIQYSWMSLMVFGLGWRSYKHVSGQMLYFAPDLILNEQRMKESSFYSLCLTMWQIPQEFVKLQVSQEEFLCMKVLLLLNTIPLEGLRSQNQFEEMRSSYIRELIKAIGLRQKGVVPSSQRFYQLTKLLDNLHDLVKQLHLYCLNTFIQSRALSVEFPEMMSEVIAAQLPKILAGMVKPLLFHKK
Put plainly: DRUGMATRIX: Progesterone radioligand binding (ligand: [3H] R-5020). In kind it is tissue-based, Uterus. The note with it: Not Active = under 50% inhibition at 10 µM.

For assay [5], the target named is C-C chemokine receptor type 2 (Homo sapiens, UniProt P41597). In kind it is cell membranes, CHO-K1, Membrane. The following applies: cho-k1. Also: in other assays of this panel Not Active means under 50% inhibition at 10 µM.
Sequence of C-C chemokine receptor type 2 (P41597 whole entry): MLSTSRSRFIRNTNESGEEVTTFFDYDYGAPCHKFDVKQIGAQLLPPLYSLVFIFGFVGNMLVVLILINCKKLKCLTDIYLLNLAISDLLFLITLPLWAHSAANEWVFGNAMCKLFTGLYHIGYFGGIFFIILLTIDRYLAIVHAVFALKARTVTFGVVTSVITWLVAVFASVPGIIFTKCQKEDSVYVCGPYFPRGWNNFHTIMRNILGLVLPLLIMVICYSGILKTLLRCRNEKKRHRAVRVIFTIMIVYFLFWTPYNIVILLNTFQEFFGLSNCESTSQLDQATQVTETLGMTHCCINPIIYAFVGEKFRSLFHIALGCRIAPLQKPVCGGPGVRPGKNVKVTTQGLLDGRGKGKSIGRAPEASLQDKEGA

As usually defined, the IC50 is the concentration at which inhibition is half-maximal. Usually Ki stands for a measure of affinity in units of concentration, obtained from inhibition or displacement.

Sequence of Sodium-dependent noradrenaline transporter (P23975 whole entry): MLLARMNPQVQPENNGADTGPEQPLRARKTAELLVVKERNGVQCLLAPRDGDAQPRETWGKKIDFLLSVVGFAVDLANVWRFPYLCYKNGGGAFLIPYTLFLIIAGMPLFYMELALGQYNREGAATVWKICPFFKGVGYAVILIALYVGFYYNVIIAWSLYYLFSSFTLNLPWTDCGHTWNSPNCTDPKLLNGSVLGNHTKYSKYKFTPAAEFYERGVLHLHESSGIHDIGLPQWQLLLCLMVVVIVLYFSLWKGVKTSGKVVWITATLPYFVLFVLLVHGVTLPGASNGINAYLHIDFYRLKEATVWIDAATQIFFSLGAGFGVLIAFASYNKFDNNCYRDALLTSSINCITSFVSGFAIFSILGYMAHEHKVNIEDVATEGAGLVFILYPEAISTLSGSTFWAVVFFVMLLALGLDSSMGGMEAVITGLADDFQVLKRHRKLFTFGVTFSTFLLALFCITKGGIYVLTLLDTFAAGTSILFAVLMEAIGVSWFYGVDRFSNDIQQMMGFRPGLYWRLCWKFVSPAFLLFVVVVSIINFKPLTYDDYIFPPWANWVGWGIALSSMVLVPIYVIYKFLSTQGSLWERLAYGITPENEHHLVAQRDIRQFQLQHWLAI

As for `CC(=O)O[C@H]1C[C@@H]2CC[C@@H]3[C@H](CC[C@@]4(C)[C@H]3C[C@H]([N+]3(C)CCCCC3)[C@@H]4OC(C)=O)[C@@]2(C)C[C@@H]1N1CCCCC1.[Br-]` [VECURONIUM BROMIDE], the IC50 result (in assay [1]; at D(1A) dopamine receptor; in assay [2]; in assay [3]; in assay [4]; on Progesterone receptor) was “Not Active” each time. In addition, the IC50 result in assay [5] is “Not Active”. Further, in assay [1], the Ki entry was “Not Active”.
Regarding `COc1cc(C(=O)NS(=O)(=O)c2ccccc2C)ccc1Cc1cn(C)c2ccc(NC(=O)OC3CCCC3)cc12` [ZAFIRLUKAST], the IC50 entry (in assay [1]; at D(1A) dopamine receptor; in assay [2]; in assay [3]; in assay [4]; on Progesterone receptor) was “Not Active” in each case. Also, in assay [5], the IC50 result is on record as “Not Active”. Further, the Ki result in assay [1] is “Not Active”.
With `Cc1cn([C@H]2C[C@H](N=[N+]=[N-])[C@@H](CO)O2)c(=O)[nH]c1=O` [ZIDOVUDINE], the IC50 result (in assay [1]; on D(1A) dopamine receptor; in assay [2]; in assay [3]; in assay [4]; at Progesterone receptor) was “Not Active” throughout. Besides, the IC50 entry in assay [5] is recorded as “Not Active”. The inhibition constant (Ki) result in assay [1] was “Not Active”.
STANNOUS FLUORIDE: the IC50 entry (in assay [1]; at D(1A) dopamine receptor; in assay [2]; in assay [3]; in assay [4]; at Progesterone receptor) was “Not Active” each time. The IC50 entry in assay [5] is “Not Active”. Further, the Ki entry (in assay [1]; on D(1A) dopamine receptor; in assay [2]; in assay [3]; in assay [4]; at Progesterone receptor) was “Not Active” each time. In addition, in assay [5], the Ki entry is reported as “Not Active”.
As to THIMEROSAL, the IC50 result is “Not Active” in assay [1]; “Not Active” at D(1A) dopamine receptor; “Not Active” in assay [2]; 931 nM in assay [3] (read-out: IC50); “Not Active” in assay [4]; “Not Active” on Progesterone receptor. The IC50 entry in assay [5] is given as “Not Active”. The Ki entry in assay [1] is “Not Active”; on D(1A) dopamine receptor it was “Not Active”; in assay [2] it was “Not Active”; in assay [3] (read-out: Ki) it was 923 nM; in assay [4], “Not Active”; at Progesterone receptor, “Not Active”. Also, the Ki result in assay [5] is listed as “Not Active”.

Values taken from ChEMBL document CHEMBL1909046, “DrugMatrix in vitro pharmacology data”.
